# Values quoted from earlier work in US8574562B2, “Microemulsion pharmaceutical composition comprising a macrolide immunosuppressant drug” (Novaliq GmbH, priority 2009, dated 2013).
# What was measured:
# [1] = relative to ciclosporin
# [2] = relative to ciclosporin; remark: listed apart in the source
# [3] = methanol, ethanol, acetone, chloroform, ethyl acetate, diethyl ether
smiles,measurement,setting,value
C=CC[C@@H]1/C=C(\C)C[C@H](C)C[C@H](OC)[C@H]2O[C@@](O)(C(=O)C(=O)N3CCCC[C@H]3C(=O)O[C@H](/C(C)=C/[C@@H]3CC[C@@H](O)[C@H](OC)C3)[C@H](C)[C@@H](O)CC1=O)[C@H](C)C[C@@H]2OC [Tacrolimus],"immunosuppressive activity in vitro, higher than that of ciclosporin",[1],50-100 times
same,"immunosuppressive activity in vivo, higher than that of ciclosporin",[2],10-20 times
same,solubility in organic solvents,[3],soluble
